According to ChEMBL document CHEMBL3885861, “Open TG-GATES”:

Species on record: Rattus norvegicus
Experiment: Open TG-GATES - Regimen: Single
Format: toxicity, organism-based, Sprague-Dawley
Set-up: regimen Single, gender Male, age 6 weeks
Settings: in vivo, po, route gavage; for APTT / Bas / Eos / Fbg / Hb / Ht / Lym / MCH / MCHC / MCV / Mono / Neu / PT / Plat / RBC / Ret / WBC: tissue Blood; for KIDNEY_L / KIDNEY_R / KIDNEY_TOTAL: tissue Kidney; for LIVER: tissue Liver; for A/G / ALP / ALT / AST / BUN / CRE / Ca / Cl / DBIL / GLC / IP / K / LDH / Na / PL / RALB / TBIL / TC / TG / TP / gamma-GTP: tissue Plasma
[1] = 100 mg/kg, 3 h, dose level Middle
[2] = 100 mg/kg, 6 h, dose level Middle
[3] = 100 mg/kg, 9 h, dose level Middle
[4] = 100 mg/kg, 24 h, dose level Middle
[5] = 300 mg/kg, 3 h, dose level High
[6] = 300 mg/kg, 6 h, dose level High
[7] = 300 mg/kg, 9 h, dose level High
[8] = 300 mg/kg, 24 h, dose level High

## Cc1cccc(Nc2ccccc2C(=O)O)c1C [MEFENAMIC ACID]
[1]
  TERMINAL_BW: 218.5 g
  APTT: 19.2 s
  Bas: 0%
  Eos: 0.8%
  Fbg: 218.2 mg/dL
  Hb: 13.3 g/dL
  Ht: 37.3%
  Lym: 80%
  MCH: 21.8 pg
  MCHC: 35.5%
  MCV: 61.4 fL
  Mono: 2.2%
  Neu: 15%
  PT: 12.2 s
  Plat: 114.3 x10_4/uL
  RBC: 608.6 x10_4/ul
  Ret: 7.4%
  WBC: 104.3 x10_2/uL
  KIDNEY_L: 1 g
  KIDNEY_R: 1 g
  KIDNEY_TOTAL: 1.9 g
  LIVER: 9.9 g
  A/G: 1.6
  ALP: 1058 IU/L
  ALT: 37.6 IU/L
  AST: 67.8 IU/L
  BUN: 12.4 mg/dL
  CRE: 0.4 mg/dL
  Ca: 10.7 mg/dL
  Cl: 103.4 meq/L
  DBIL: 0.074 mg/dL
  GLC: 196.8 mg/dL
  IP: 8.6 mg/dL
  K: 4.1 meq/L
  LDH: 184 IU/L
  Na: 140.8 meq/L
  PL: 141.4 mg/dL
  RALB: 3.4 g/dL
  TBIL: 0.1 mg/dL
  TC: 78.6 mg/dL
  TG: 43.4 mg/dL
  TP: 5.5 g/dL
  gamma-GTP: 1.6 IU/L
[2]
  TERMINAL_BW: 215.4 g
  APTT: 18.2 s
  Bas: 0%
  Eos: 1%
  Fbg: 225.6 mg/dL
  Hb: 13 g/dL
  Ht: 37.2%
  Lym: 76.2%
  MCH: 21.7 pg
  MCHC: 35.1%
  MCV: 61.8 fL
  Mono: 2.6%
  Neu: 18.6%
  PT: 12.6 s
  Plat: 108.7 x10_4/uL
  RBC: 602.4 x10_4/ul
  Ret: 7.6%
  WBC: 76.8 x10_2/uL
  KIDNEY_L: 1 g
  KIDNEY_R: 1 g
  KIDNEY_TOTAL: 2 g
  LIVER: 9.6 g
  A/G: 1.6
  ALP: 782.4 IU/L
  ALT: 36.8 IU/L
  AST: 64.2 IU/L
  BUN: 11 mg/dL
  CRE: 0.3 mg/dL
  Ca: 10.5 mg/dL
  Cl: 103 meq/L
  DBIL: 0.064 mg/dL
  GLC: 185.4 mg/dL
  IP: 9 mg/dL
  K: 4.1 meq/L
  LDH: 160.4 IU/L
  Na: 139.8 meq/L
  PL: 139.6 mg/dL
  RALB: 3.3 g/dL
  TBIL: 0.1 mg/dL
  TC: 77.6 mg/dL
  TG: 48.4 mg/dL
  TP: 5.4 g/dL
  gamma-GTP: 1.4 IU/L
[3]
  TERMINAL_BW: 211.6 g
  APTT: 17.9 s
  Bas: 0%
  Eos: 1%
  Fbg: 216.4 mg/dL
  Hb: 13.6 g/dL
  Ht: 38.1%
  Lym: 77.2%
  MCH: 22.3 pg
  MCHC: 35.8%
  MCV: 62.4 fL
  Mono: 2.2%
  Neu: 18.2%
  PT: 12.7 s
  Plat: 112.5 x10_4/uL
  RBC: 611 x10_4/ul
  Ret: 7.2%
  WBC: 77.1 x10_2/uL
  KIDNEY_L: 0.9 g
  KIDNEY_R: 0.9 g
  KIDNEY_TOTAL: 1.8 g
  LIVER: 8.6 g
  A/G: 1.6
  ALP: 955.2 IU/L
  ALT: 30.8 IU/L
  AST: 61.6 IU/L
  BUN: 12.2 mg/dL
  CRE: 0.4 mg/dL
  Ca: 10.4 mg/dL
  Cl: 103 meq/L
  DBIL: 0.06 mg/dL
  GLC: 196.2 mg/dL
  IP: 9.4 mg/dL
  K: 3.7 meq/L
  LDH: 184.6 IU/L
  Na: 140.2 meq/L
  PL: 127.8 mg/dL
  RALB: 3.4 g/dL
  TBIL: 0.1 mg/dL
  TC: 72.4 mg/dL
  TG: 29.6 mg/dL
  TP: 5.5 g/dL
  gamma-GTP: 1 IU/L
[4]
  TERMINAL_BW: 227 g
  APTT: 17.3 s
  Bas: 0%
  Eos: 1%
  Fbg: 209.2 mg/dL
  Hb: 13 g/dL
  Ht: 37.3%
  Lym: 72.6%
  MCH: 22.1 pg
  MCHC: 35%
  MCV: 63.2 fL
  Mono: 2.8%
  Neu: 21.2%
  PT: 12.1 s
  Plat: 119.7 x10_4/uL
  RBC: 590.4 x10_4/ul
  Ret: 7%
  WBC: 99.5 x10_2/uL
  KIDNEY_L: 1 g
  KIDNEY_R: 1.1 g
  KIDNEY_TOTAL: 2.1 g
  LIVER: 11 g
  A/G: 1.6
  ALP: 883 IU/L
  ALT: 39.2 IU/L
  AST: 67.2 IU/L
  BUN: 14.2 mg/dL
  CRE: 0.4 mg/dL
  Ca: 10.9 mg/dL
  Cl: 102.8 meq/L
  DBIL: 0.092 mg/dL
  GLC: 190.6 mg/dL
  IP: 7.5 mg/dL
  K: 4.3 meq/L
  LDH: 196.4 IU/L
  Na: 139.8 meq/L
  PL: 151.8 mg/dL
  RALB: 3.5 g/dL
  TBIL: 0.1 mg/dL
  TC: 81 mg/dL
  TG: 88.8 mg/dL
  TP: 5.6 g/dL
  gamma-GTP: 1.4 IU/L
[5]
  TERMINAL_BW: 215.2 g
  APTT: 18.8 s
  Bas: 0%
  Eos: 1.2%
  Fbg: 229.4 mg/dL
  Hb: 12.9 g/dL
  Ht: 36.2%
  Lym: 73.6%
  MCH: 21.8 pg
  MCHC: 35.6%
  MCV: 61.3 fL
  Mono: 2.8%
  Neu: 20.2%
  PT: 12.4 s
  Plat: 115.5 x10_4/uL
  RBC: 591.2 x10_4/ul
  Ret: 7.5%
  WBC: 95.9 x10_2/uL
  KIDNEY_L: 1 g
  KIDNEY_R: 1 g
  KIDNEY_TOTAL: 2 g
  LIVER: 9.5 g
  A/G: 1.5
  ALP: 832.8 IU/L
  ALT: 35.8 IU/L
  AST: 66.4 IU/L
  BUN: 11.6 mg/dL
  CRE: 0.4 mg/dL
  Ca: 10.7 mg/dL
  Cl: 102.6 meq/L
  DBIL: 0.072 mg/dL
  GLC: 181.2 mg/dL
  IP: 8.6 mg/dL
  K: 4.3 meq/L
  LDH: 184 IU/L
  Na: 139.6 meq/L
  PL: 134.2 mg/dL
  RALB: 3.2 g/dL
  TBIL: 0.1 mg/dL
  TC: 73.2 mg/dL
  TG: 38.4 mg/dL
  TP: 5.4 g/dL
  gamma-GTP: 1.4 IU/L
[6]
  TERMINAL_BW: 215.5 g
  APTT: 18.9 s
  Bas: 0%
  Eos: 1%
  Fbg: 220 mg/dL
  Hb: 13.2 g/dL
  Ht: 36.8%
  Lym: 73.2%
  MCH: 21.5 pg
  MCHC: 35.8%
  MCV: 60.2 fL
  Mono: 3%
  Neu: 19.6%
  PT: 12.7 s
  Plat: 114.8 x10_4/uL
  RBC: 612.4 x10_4/ul
  Ret: 7.5%
  WBC: 106.7 x10_2/uL
  KIDNEY_L: 1 g
  KIDNEY_R: 1 g
  KIDNEY_TOTAL: 2 g
  LIVER: 8.8 g
  A/G: 1.6
  ALP: 1032.8 IU/L
  ALT: 31.2 IU/L
  AST: 60.8 IU/L
  BUN: 13 mg/dL
  CRE: 0.3 mg/dL
  Ca: 10.4 mg/dL
  Cl: 104.2 meq/L
  DBIL: 0.06 mg/dL
  GLC: 194.6 mg/dL
  IP: 9.1 mg/dL
  K: 4.1 meq/L
  LDH: 175 IU/L
  Na: 140.2 meq/L
  PL: 133.4 mg/dL
  RALB: 3.3 g/dL
  TBIL: 0.1 mg/dL
  TC: 75.4 mg/dL
  TG: 39 mg/dL
  TP: 5.4 g/dL
  gamma-GTP: 1 IU/L
[7]
  TERMINAL_BW: 211.4 g
  APTT: 17.9 s
  Bas: 0%
  Eos: 1%
  Fbg: 221 mg/dL
  Hb: 13.1 g/dL
  Ht: 36.7%
  Lym: 70.4%
  MCH: 21.7 pg
  MCHC: 35.7%
  MCV: 60.7 fL
  Mono: 2.6%
  Neu: 22.8%
  PT: 13.1 s
  Plat: 112.4 x10_4/uL
  RBC: 604.8 x10_4/ul
  Ret: 7.5%
  WBC: 77.5 x10_2/uL
  KIDNEY_L: 1 g
  KIDNEY_R: 1 g
  KIDNEY_TOTAL: 2 g
  LIVER: 8.1 g
  A/G: 1.6
  ALP: 800.8 IU/L
  ALT: 29.8 IU/L
  AST: 58.8 IU/L
  BUN: 14.2 mg/dL
  CRE: 0.4 mg/dL
  Ca: 10.5 mg/dL
  Cl: 104.8 meq/L
  DBIL: 0.068 mg/dL
  GLC: 187.4 mg/dL
  IP: 9.4 mg/dL
  K: 4.2 meq/L
  LDH: 173.6 IU/L
  Na: 140.8 meq/L
  PL: 119 mg/dL
  RALB: 3.4 g/dL
  TBIL: 0.1 mg/dL
  TC: 65 mg/dL
  TG: 35.6 mg/dL
  TP: 5.5 g/dL
  gamma-GTP: 1 IU/L
[8]
  TERMINAL_BW: 225 g
  APTT: 18.3 s
  Bas: 0%
  Eos: 0.8%
  Fbg: 289.8 mg/dL
  Hb: 12.9 g/dL
  Ht: 36.8%
  Lym: 60.4%
  MCH: 22 pg
  MCHC: 35.1%
  MCV: 62.8 fL
  Mono: 3%
  Neu: 31.4%
  PT: 11.8 s
  Plat: 115.4 x10_4/uL
  RBC: 585.4 x10_4/ul
  Ret: 7%
  WBC: 131.5 x10_2/uL
  KIDNEY_L: 1 g
  KIDNEY_R: 1 g
  KIDNEY_TOTAL: 2.1 g
  LIVER: 10.5 g
  A/G: 1.5
  ALP: 850.8 IU/L
  ALT: 36 IU/L
  AST: 61.4 IU/L
  BUN: 14.2 mg/dL
  CRE: 0.4 mg/dL
  Ca: 10.4 mg/dL
  Cl: 103.6 meq/L
  DBIL: 0.08 mg/dL
  GLC: 185.2 mg/dL
  IP: 7.8 mg/dL
  K: 3.8 meq/L
  LDH: 187.2 IU/L
  Na: 141.4 meq/L
  PL: 133.4 mg/dL
  RALB: 3 g/dL
  TBIL: 0.1 mg/dL
  TC: 67 mg/dL
  TG: 100.2 mg/dL
  TP: 5 g/dL
  gamma-GTP: 2 IU/L
